# Experimental data from patent US12077778B2, “Methods of generating human inner ear sensory epithelia and sensory neurons” (INDIANA UNIVERSITY RESEARCH AND TECHNOLOGY CORPORATION, priority 2015, dated 2024).
# Columns and labels:
# Type in all cases: cell-based, human
# OEPD-induced aggregates = test: qPCR of PAX8/PAX2 expression after WNT and FGF signaling modulation, days 8-10; details: one exploratory experiment
# Description: Thus, we changed strategies by lengthening the initial culture phase to 12 days (with addition of fresh media on day 8) and testing the effect of transitioning the aggregates to Matrigel™ droplets.
# Quantitative PCR. Analysis was performed as previously described on an ABI PRISM 7900HT Sequence Detection System (Applied Biosystems) or a Bio-Rad CFX96 quantitative PCR machine (Bio-Rad)^6. Data were normalized to L27 expression (internal control) and the fold change was calculated relative to Ct values from d0 WA25 aggregates using the ΔΔCt method. Unless stated otherwise, data represent at least 3 separate biological samples from separate experiments. All indicators of statistical significance refer to comparisons between a given condition and the control group. Refer to Table 4 for primer details.
# hPS cell aggregates = test: Otic placode-like cell induction by CHIR treatment on day 8; details: CHIR 3 μM added on day 8
# Description: hPSC differentiation. To start differentiation, hPSC cells were dissociated with StemPro Accutase (Invitrogen) and distributed, 5,000 cells per well, onto 96-well V-bottom plates in E8 medium containing 20 μM Y-27632 (Stemgent) and Normocin. Following a 48 hour incubation, the aggregates were transferred to 96-well U-bottom plates in 100 μl of Chemically Defined Medium (CDM) containing 4 ng ml^−1 FGF-2 (Peprotech), 10 μM SB-431542 (Stemgent), and, for some experiments, 2.5 ng ml^−1 BMP4 (Stemgent), and 2% Growth Factor Reduced (GFR) Matrigel (Corning) to initiate non-neural induction—i.e. differentiation day 0. CDM contained a 50:50 mixture of F-12 Nutrient Mixture with GlutaMAX (Gibco) and Iscove's Modified Dulbecco's Medium with GlutaMAX (IMDM; Gibco) additionally supplemented with 0.5% Bovine Serum Albumin (BSA), 1× Chemically Defined Lipid Concentrate (Invitrogen), […] (Sigma), 15 μg ml^−1 Transferrin (Sigma), 450 μM Mono-Thioglycerol, and Normocin (see Table 1 for a detailed formulation). […] For some experiments, CDM containing a 18 μM CHIR99021 (3 μM final concentration; Stemgent) was added to the pre-existing 125 μl of media in each well—we determined that this treatment is optional for inner ear organoid production, but may improve induction of otic placode-like cells. […]
# [1] = test system: Matrigel-embedded hPSC aggregates; test: Otic pit/vesicle formation in Matrigel-embedded day 12 aggregates treated with Wnt agonist
# Excerpt: To promote PAX2 expression and vesicle formation, we began testing various signaling modulators (FIGS. 12A-12C). […] We suspected that extracellular matrix could provide structural support for vesicle formation; thus, we transferred day 12 aggregates to Matrigel droplets in a minimal media (FIG. 4A). In these cultures, we observed radial production of migratory cells, but no vesicle-like structures or PAX2^+ cells were apparent (FIG. 2B). Wnt activation seems to be essential for otic, but not epibranchial development, in vivo and can enhance the production of mouse inner ear organoids in vitro^4,19-21. Remarkably, in 90.9±5.2% of Matrigel®-embedded aggregates treated with a Wnt signaling agonist, CHIR99021, between days 12-16 (n=84, 7 experiments), we witnessed epithelial protrusions reminiscent of the otic pits that precede vesicle development in vivo (FIG. 4C). We determined that the otic pit-like structures were PAX2^+ PAX8^+ SOX2^+ SOX10^+ JAG1^+, confirming otic identity (FIGS. 4D-4H). […] The aggregates were resuspended in ice cold undiluted GFR Matrigel and placed in approximately 25 μl droplets on the surface of a 100 mm bacterial culture plate. After at least 30 minutes of incubation at 37° C., the droplets were bathed in 10 ml of OMNI containing 3 μM CHIR99021. For non-droplet otic induction, the aggregates were washed and plated individually into each well of a 24-well low cell adhesion plate in OMNI containing 3 μM CHIR and 1% GFR Matrigel. After 18 days of differentiation, the CHIR was removed from the medium by washing and the droplet aggregates were moved to a floating culture. Droplets were carefully dislodged using a wide-mouth […] tip and transferred to 75 ml of fresh OMNI in a 125 ml disposable spinner flask (Corning). Spinner flasks were maintained on an in-incubator stir plate (Thermo Scientific) at 65 RPM for up to 180 days of differentiation. For some experiments, the aggregates were maintained in individual wells of 24-well low-cell adhesion plates in 1 ml of OMM on an in-incubator orbital shaker (Thermo Scientific) for up to 140 days. […]
smiles,measurement,setting,value
Cc1c[nH]c(-c2cnc(NCCNc3ccc(C#N)cn3)nc2-c2ccc(Cl)cc2Cl)n1 [CHIR99021],PAX2 expression (qPCR) compared to DMSO controls,OEPD-induced aggregates,only had a modest positive or negative impact on PAX2 expression
same,PAX2+ cells by day 12,hPS cell aggregates,induces small patches of PAX2+ cells
same,aggregates with epithelial protrusions reminiscent of otic pits,"[1]; CHIR99021 between days 12-16, n=84, 7 experiments",90.9±5.2%
same,PAX8+ PAX2+ SOX10+ vesicles evaginating from the outer epithelium,[1]; CHIR between days 12-18,10-30 vesicles per aggregate
same,aggregates with otic vesicle formation,"[1]; Matrigel embedding with continued CHIR, days 12-18, >100 aggregates, four independent experiments",> 95%
